Measurements: the Kinase Knowledgebase extract (Sharma et al. 2016)

Biological target: EGFR (UniProt P00533)
Sequence (P00533 whole entry, looked up): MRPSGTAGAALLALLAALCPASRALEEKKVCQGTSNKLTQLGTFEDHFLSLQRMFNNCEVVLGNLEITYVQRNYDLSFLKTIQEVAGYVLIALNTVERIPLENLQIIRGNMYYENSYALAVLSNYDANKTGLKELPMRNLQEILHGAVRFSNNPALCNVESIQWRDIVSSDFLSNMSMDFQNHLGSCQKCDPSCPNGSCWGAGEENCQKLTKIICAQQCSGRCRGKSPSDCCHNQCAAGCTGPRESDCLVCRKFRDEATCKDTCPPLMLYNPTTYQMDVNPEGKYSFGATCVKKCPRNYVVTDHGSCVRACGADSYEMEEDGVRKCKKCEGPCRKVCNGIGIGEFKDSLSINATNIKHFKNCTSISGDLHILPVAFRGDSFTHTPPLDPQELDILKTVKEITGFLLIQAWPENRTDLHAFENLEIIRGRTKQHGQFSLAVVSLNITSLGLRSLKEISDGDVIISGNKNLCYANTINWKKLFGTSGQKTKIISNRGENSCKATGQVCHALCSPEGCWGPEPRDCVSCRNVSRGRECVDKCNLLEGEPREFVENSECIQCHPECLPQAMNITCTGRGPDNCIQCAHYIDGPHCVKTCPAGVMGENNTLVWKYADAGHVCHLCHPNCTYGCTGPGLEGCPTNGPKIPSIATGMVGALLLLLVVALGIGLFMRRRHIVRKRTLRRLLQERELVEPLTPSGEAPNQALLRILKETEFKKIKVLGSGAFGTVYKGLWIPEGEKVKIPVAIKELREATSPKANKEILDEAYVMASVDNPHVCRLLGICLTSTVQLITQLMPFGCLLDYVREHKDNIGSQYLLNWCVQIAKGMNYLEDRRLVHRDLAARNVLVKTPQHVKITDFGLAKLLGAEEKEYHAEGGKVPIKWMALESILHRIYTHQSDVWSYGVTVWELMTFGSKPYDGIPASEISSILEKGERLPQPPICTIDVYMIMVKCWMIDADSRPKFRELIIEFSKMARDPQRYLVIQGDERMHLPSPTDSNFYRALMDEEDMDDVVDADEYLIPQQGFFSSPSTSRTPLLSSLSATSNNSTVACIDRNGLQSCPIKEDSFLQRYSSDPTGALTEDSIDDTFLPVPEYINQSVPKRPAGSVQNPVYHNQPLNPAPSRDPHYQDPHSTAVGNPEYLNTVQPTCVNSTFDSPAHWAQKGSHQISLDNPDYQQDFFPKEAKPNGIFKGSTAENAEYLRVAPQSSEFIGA

IC50, 1 to 5000 nM:
CCc1c(NC(=O)OC[C@@H]2CCCN2)cn2ncnc(Nc3ccc4c(cnn4Cc4ccccc4)c3)c12
Cc1c(NC(=O)OC[C@H]2COCCN2)cn2ncnc(Nc3ccc4c(cnn4Cc4cccc(F)c4)c3)c12
CCc1c(NC(=O)OC[C@@H]2COCCN2)cn2ncnc(Nc3ccc4c(cnn4Cc4ccccc4)c3)c12
CCc1c(NC(=O)OC[C@@H]2CCNC2)cn2ncnc(Nc3ccc4c(cnn4Cc4ccccc4)c3)c12
CCc1c(NC(=O)OC[C@@H]2COCCN2)cn2ncnc(Nc3ccc4c(cnn4Cc4ccsc4)c3)c12
CCc1c(NC(=O)OC[C@@H]2COCCN2)cn2ncnc(Nc3ccc4c(cnn4Cc4cccnc4)c3)c12
CCc1c(NC(=O)OCCCN2CCC[C@H](O)C2)cn2ncnc(Nc3ccc4c(cnn4Cc4ccccc4)c3)c12
CCc1c(NC(=O)O[C@H]2CC[C@H](CN)CC2)cn2ncnc(Nc3ccc4c(cnn4Cc4ccccc4)c3)c12
CCc1c(NC(=O)O[C@H]2CC[C@@H](CN)CC2)cn2ncnc(Nc3ccc4c(cnn4Cc4ccccc4)c3)c12
CCc1c(NC(=O)OC2CCN[C@H](CO)C2)cn2ncnc(Nc3ccc4c(cnn4Cc4ccccc4)c3)c12 (stereo not given in full)
CCc1c(NC(=O)OC[C@H]2CCCN2)cn2ncnc(Nc3ccc4c(cnn4Cc4ccccc4)c3)c12
CCc1c(NC(=O)OC[C@H]2C[C@H](O)CCN2)cn2ncnc(Nc3ccc4c(cnn4Cc4ccccc4)c3)c12
CCc1c(NC(=O)O[C@H]2CC[C@H](N)CC2)cn2ncnc(Nc3ccc4c(cnn4Cc4ccccc4)c3)c12
CCc1c(NC(=O)OC[C@@H]2COCCN2)cn2ncnc(Nc3ccc4c(cnn4Cc4cscn4)c3)c12
CCc1c(NC(=O)OCCCN2CC[C@@H](O)C2)cn2ncnc(Nc3ccc4c(cnn4Cc4ccccc4)c3)c12
Cc1c(NC(=O)O[C@H]2CC[C@@H](N)CC2)cn2ncnc(Nc3ccc4c(cnn4Cc4cccc(F)c4)c3)c12
Cc1c(NC(=O)OC[C@@H]2COCCN2C(=O)OC(C)(C)C)cn2ncnc(Nc3ccc4c(cnn4Cc4cccc(F)c4)c3)c12
Cc1c(NC(=O)O[C@@H]2CCCNC2)cn2ncnc(Nc3ccc4c(cnn4Cc4cccc(F)c4)c3)c12
Cc1c(NC(=O)O[C@@H]2CCN[C@@H](CO)C2)cn2ncnc(Nc3ccc4c(cnn4Cc4cccc(F)c4)c3)c12
Cc1c(NC(=O)O[C@H]2CC[C@H](N)CC2)cn2ncnc(Nc3ccc4c(cnn4Cc4cccc(F)c4)c3)c12
Cc1c(NC(=O)OC[C@@H]2COCCN2)cn2ncnc(Nc3ccc4c(cnn4Cc4cccc(F)c4)c3)c12
CCc1c(NC(=O)OC[C@@H]2CCN(C)C2)cn2ncnc(Nc3ccc4c(cnn4Cc4ccccc4)c3)c12
Cc1c(NC(=O)OC[C@@H](C)N)cn2ncnc(Nc3ccc4c(cnn4Cc4cccc(F)c4)c3)c12
CCc1c(NC(=O)OC[C@@H]2COCCN2)cn2ncnc(Nc3ccc4c(cnn4Cc4cccc(F)c4)c3)c12
CCc1c(NC(=O)OC[C@@H]2COCCN2)cn2ncnc(Nc3ccc4c(cnn4Cc4cccs4)c3)c12
CCc1c(NC(=O)OC[C@@H]2COCCN2)cn2ncnc(Nc3ccc4c(cnn4Cc4nccs4)c3)c12
Cc1c(NC(=O)O[C@H]2CCN[C@H](CO)C2)cn2ncnc(Nc3ccc4c(cnn4Cc4cccc(F)c4)c3)c12
CCc1c(NC(=O)OC[C@@H]2COCCN2)cn2ncnc(Nc3ccc4c(cnn4Cc4cnccn4)c3)c12
CCc1c(NC(=O)OC[C@H]2CCNC2)cn2ncnc(Nc3ccc4c(cnn4Cc4ccccc4)c3)c12
CCc1c(NC(=O)OC[C@@H]2CCCN2C)cn2ncnc(Nc3ccc4c(cnn4Cc4ccccc4)c3)c12
CCc1c(NC(=O)O[C@H]2CCCNC2)cn2ncnc(Nc3ccc4c(cnn4Cc4ccccc4)c3)c12
CCc1c(NC(=O)O[C@H]2CC[C@@H](N)CC2)cn2ncnc(Nc3ccc4c(cnn4Cc4ccccc4)c3)c12
Cc1c(NC(=O)OC[C@H](C)N)cn2ncnc(Nc3ccc4c(cnn4Cc4cccc(F)c4)c3)c12
CCc1c(NC(=O)O[C@@H]2CCN[C@@H](CO)C2)cn2ncnc(Nc3ccc4c(cnn4Cc4ccccc4)c3)c12
CCc1c(NC(=O)OC[C@H]2COCCN2)cn2ncnc(Nc3ccc4c(cnn4Cc4ccccc4)c3)c12
CCc1c(NC(=O)OCCCN2CC[C@H](O)C2)cn2ncnc(Nc3ccc4c(cnn4Cc4ccccc4)c3)c12
CCc1c(NC(=O)OC[C@@H]2CNCCO2)cn2ncnc(Nc3ccc4c(cnn4Cc4ccccc4)c3)c12
CCc1c(NC(=O)OC[C@@H]2COCCN2)cn2ncnc(Nc3ccc4c(cnn4Cc4ncco4)c3)c12
Cc1c(NC(=O)OCC2COCCN2)cn2ncnc(Nc3ccc4c(cnn4Cc4cccc(F)c4)c3)c12 (stereo not given)
CCc1c(NC(=O)OC[C@@H]2COCCN2)cn2ncnc(Nc3ccc4c(cnn4Cc4ccccn4)c3)c12
Cc1c(NC(=O)O[C@H]2CC[C@@](C)(N)CC2)cn2ncnc(Nc3ccc4c(cnn4Cc4cccc(F)c4)c3)c12
CCc1c(NC(=O)O[C@@H]2CCCNC2)cn2ncnc(Nc3ccc4c(cnn4Cc4ccccc4)c3)c12
CCc1c(NC(=O)OC[C@H]2CNCCO2)cn2ncnc(Nc3ccc4c(cnn4Cc4ccccc4)c3)c12
Cc1c(NC(=O)O[C@H]2CCCNC2)cn2ncnc(Nc3ccc4c(cnn4Cc4cccc(F)c4)c3)c12
CCc1c(NC(=O)O[C@H]2CC[C@@](C)(N)CC2)cn2ncnc(Nc3ccc4c(cnn4Cc4ccccc4)c3)c12
